Reference: patent US20200237742A1, “Serdexmethylphenidate Conjugates, Compositions And Methods Of Use Thereof” (priority 2018, published 2020)
Structures can show the parent of a compound that is named as a salt.

Tested on: healthy, nondependent, recreational stimulant users with intranasal insufflation experience
Experiment: Intranasal study, treatment-emergent adverse events (Table 54)
Method: The study consisted of a Screening Period, an in-clinic Drug Discrimination Phase, a Treatment Phase, and a Follow-Up Visit.
All subjects were required to fast for at least 8 hours prior to each dose of study drug until approximately 4 hours after each dose. Abuse potential measures and pharmacokinetic samples were collected at different times after the administration of study drug. Subjects who successfully completed the Drug Discrimination Phase and who qualified for the Treatment Phase remained as inpatients to enter the Treatment Phase.

[1] = intranasal, d-MPH HCl 40 mg, SDX Cl 80 mg, N = 46 each

COC(=O)[C@H](c1ccccc1)[C@H]1CCCCN1 [d-methylphenidate hydrochloride, d-threo-methylphenidate hydrochloride]
9 (19.6%) n (%): Gastrointestinal disorders, subjects with event [1] | Nervous system disorders, subjects with event [1]
11 E: Palpitations, number of occurrences [1]
46 (100.0%) n (%): Any TEAE, subjects with event [1]
3 (6.5%) n (%): Decreased appetite, subjects with event [1] | Dry throat, subjects with event [1] | Eye disorders, subjects with event [1] | Fatigue, subjects with event [1] | Feeling hot, subjects with event [1] | Hyperhidrosis, subjects with event [1] | Metabolism and nutrition disorders, subjects with event [1] | Nasal discomfort, subjects with event [1] | Throat irritation, subjects with event [1]
16 (34.8%) n (%): Hypervigilance, subjects with event [1]
29 E: Cardiac disorders, number of occurrences [1] | Euphoric mood, number of occurrences [1]
7 E: Headache, number of occurrences [1] | Sinus tachycardia, number of occurrences [1]
12 (26.1%) n (%): General disorders and administration site conditions, subjects with event [1]
occurred more often: typical stimulant-related adverse events (euphoric mood, hypervigilance, cardiac palpitations and tachycardia) (intranasal d-MPH HCl compared to intranasal SDX Cl)
6 E: Dry mouth, number of occurrences [1]
6 (13.0%) n (%): Dry mouth, subjects with event [1]
5 E: Musculoskeletal and connective tissue disorders, number of occurrences [1]
4 E: Skin and subcutaneous tissue disorders, number of occurrences [1]
54 E: Psychiatric disorders, number of occurrences [1]
0 n (%): Abdominal distension, subjects with event [1] | Agitation, subjects with event [1] | Arthralgia, subjects with event [1] | Catheter site haematoma, subjects with event [1] | Catheter site swelling, subjects with event [1] | Chest pain, subjects with event [1] | Claustrophobia, subjects with event [1] | Cough, subjects with event [1] | Dizziness, subjects with event [1] | Dysgeusia, subjects with event [1] | Dyspepsia, subjects with event [1] | Ecchymosis (skin discoloration), subjects with event [1] | Epistaxis (nosebleed), subjects with event [1] | Eye pain, subjects with event [1] | Feeling of relaxation, subjects with event [1] | Head discomfort, subjects with event [1] | Infections and infestations, subjects with event [1] | Irritability, subjects with event [1] | Lacrimation increased, subjects with event [1] | Nasal dryness, subjects with event [1] | Pharyngitis, subjects with event [1] | Phlebitis superficial, subjects with event [1] | Pyrexia, subjects with event [1] | Rhinorrhoea (runny nose), subjects with event [1] | Sneezing, subjects with event [1] | Upper-airway cough syndrome, subjects with event [1] | Vomiting, subjects with event [1]
11 (23.9%) n (%): Palpitations, subjects with event [1]
12 E: Respiratory, thoracic and mediastinal disorders, number of occurrences [1]
1 (2.2%) n (%): Abdominal pain, subjects with event [1] | Asthenia, subjects with event [1] | Back pain, subjects with event [1] | Blood pressure diastolic increased, subjects with event [1] | Change in sustained attention, subjects with event [1] | Chest discomfort, subjects with event [1] | Defaecation urgency, subjects with event [1] | Diarrhoea, subjects with event [1] | Disturbance in attention, subjects with event [1] | Dysmenorrhoea (menstrual cramps), subjects with event [1] | Eye irritation, subjects with event [1] | Flushing, subjects with event [1] | Haematoma, subjects with event [1] | Hypopnoea (shallow breathing), subjects with event [1] | Investigations, subjects with event [1] | Muscle twitching, subjects with event [1] | Nasal congestion, subjects with event [1] | Nausea, subjects with event [1] | Neck pain, subjects with event [1] | Obsessive-compulsive disorder, subjects with event [1] | Peripheral swelling, subjects with event [1] | Pharyngeal hypoaesthesia (numbness of throat), subjects with event [1] | Phonophobia (fear of loud noises), subjects with event [1] | Photophobia, subjects with event [1] | Skin erosion, subjects with event [1] | Testis discomfort, subjects with event [1] | Vessel puncture site bruise, subjects with event [1] | Vessel puncture site pain, subjects with event [1] | Visual impairment, subjects with event [1]
1 E: Abdominal pain, number of occurrences [1] | Asthenia, number of occurrences [1] | Back pain, number of occurrences [1] | Blood pressure diastolic increased, number of occurrences [1] | Change in sustained attention, number of occurrences [1] | Chest discomfort, number of occurrences [1] | Defaecation urgency, number of occurrences [1] | Diarrhoea, number of occurrences [1] | Disturbance in attention, number of occurrences [1] | Dysmenorrhoea (menstrual cramps), number of occurrences [1] | Eye irritation, number of occurrences [1] | Flushing, number of occurrences [1] | Haematoma, number of occurrences [1] | Hypopnoea (shallow breathing), number of occurrences [1] | Investigations, number of occurrences [1] | Muscle twitching, number of occurrences [1] | Nasal congestion, number of occurrences [1] | Nausea, number of occurrences [1] | Neck pain, number of occurrences [1] | Obsessive-compulsive disorder, number of occurrences [1] | Peripheral swelling, number of occurrences [1] | Pharyngeal hypoaesthesia (numbness of throat), number of occurrences [1] | Phonophobia (fear of loud noises), number of occurrences [1] | Photophobia, number of occurrences [1] | Skin erosion, number of occurrences [1] | Testis discomfort, number of occurrences [1] | Vessel puncture site bruise, number of occurrences [1] | Vessel puncture site pain, number of occurrences [1] | Visual impairment, number of occurrences [1]
3 E: Decreased appetite, number of occurrences [1] | Dry throat, number of occurrences [1] | Eye disorders, number of occurrences [1] | Fatigue, number of occurrences [1] | Feeling hot, number of occurrences [1] | Hyperhidrosis, number of occurrences [1] | Metabolism and nutrition disorders, number of occurrences [1] | Nasal discomfort, number of occurrences [1] | Throat irritation, number of occurrences [1]
10 (21.7%) n (%): Respiratory, thoracic and mediastinal disorders, subjects with event [1]
148 E: Any TEAE, number of occurrences [1]
2 E: Anxiety, number of occurrences [1] | Bruxism, number of occurrences [1] | Energy increased, number of occurrences [1] | Muscle tightness, number of occurrences [1] | Reproductive system and breast disorders, number of occurrences [1] | Restlessness, number of occurrences [1] | Somnolence, number of occurrences [1] | Vascular disorders, number of occurrences [1] | Ventricular extrasystoles, number of occurrences [1]
10 E: Gastrointestinal disorders, number of occurrences [1] | Nervous system disorders, number of occurrences [1]
9 E: Tachycardia, number of occurrences [1]
4 (8.7%) n (%): Musculoskeletal and connective tissue disorders, subjects with event [1] | Skin and subcutaneous tissue disorders, subjects with event [1]
19 (41.3%) n (%): Cardiac disorders, subjects with event [1]
7 (15.2%) n (%): Headache, subjects with event [1] | Sinus tachycardia, subjects with event [1]
41 (89.1%) n (%): Psychiatric disorders, subjects with event [1]
8 (17.4%) n (%): Tachycardia, subjects with event [1]
13 E: General disorders and administration site conditions, number of occurrences [1]
2 (4.3%) n (%): Anxiety, subjects with event [1] | Bruxism, subjects with event [1] | Energy increased, subjects with event [1] | Muscle tightness, subjects with event [1] | Reproductive system and breast disorders, subjects with event [1] | Restlessness, subjects with event [1] | Somnolence, subjects with event [1] | Vascular disorders, subjects with event [1] | Ventricular extrasystoles, subjects with event [1]
29 (63.0%) n (%): Euphoric mood, subjects with event [1]
16 E: Hypervigilance, number of occurrences [1]
